Reference: patent US20250241879A1, “CAPSAICIN SEQUENTIAL DOSING METHOD FOR TREATMENT OF KNEE JOINT PAIN” (priority 2018, published 2025)

Test system: human patients with bilateral knee osteoarthritis
Experiment: Procedure pain (NPRS) due to intraarticular trans-capsaicin, Breg pad vs ice pack cooling (Example 7)
Format: in vivo
Details: 1 mg intraarticular
Procedure: Human patients experiencing osteoarthritic knee joint pain were subjected to two different protocols for intraarticular administration of trans-capsaicin. Temporary pain expected due to administration of capsaicin was analyzed, along with the intraarticular temperature of the knee joint and the temperature of the patient's skin in the area to be cooled.
(§1) One of the protocols utilized a Breg Knee WrapOn Polar Pad (as illustrated in FIG. 1) that utilizes circulating ice-water to achieve cooling, where the pad is placed on skin surrounding the knee in order to cool the knee joint. The other protocol utilized ice-pack cooling, in which the patient's knee was wrapped with a stockinette and then the ice pack was positioned on top of the stockinette so that the ice pack is positioned over the patient's patella to thereby cool the knee joint. The ice pack was a LEADSTAR pain relief reusable cold therapy ice pack (size=6 inches). A temperature probe was placed into the intraarticular space of the patient's knee joint to measure intraarticular temperature of the knee joint. A temperature probe was also placed on the skin in the area to be cooled in order to measure skin temperature in the area to be cooled.
Five human patients suffering from moderate to severe painful bilateral knee osteoarthritis were recruited for this study evaluating the impact that cooling protocol has on the magnitude of temporary pain experienced by the patient due to administration of capsaicin. […] Patients that participated in the study passed the following screening criteria and meet the patient inclusion and exclusion criteria are set forth below. As part of patient screening, patients received an intradermal injection of 100 μL (100 μg) capsaicin into the non-dominant volar forearm. To be eligible to enter the study, patients were able to tolerate the capsaicin injection. Screening patients rated the pain from capsaicin injection at 5, 10, 20, and 30 minutes after injection using a 0-10 Numerical Pain Rating Scale, where “0” equals no pain and “10” equals worst possible pain.
as §1, with “ice pack (having a surface for application to the patient, wherein said surface has a diameter of approximately six inches) is positioned” for “ice pack is positioned”, “knee joint. A temperature” for “knee joint. The ice pack was a LEADSTAR pain relief reusable cold therapy ice pack (size=6 inches). A temperature”, “knee joint. At the discretion of the physician performing the procedure, in order to reduce discomfort for the patient, the protocol authorized the physician to instill a volume of 1-2 cc of 2% w/w lidocaine (without epinephrine) into the skin and subcutaneous tissue of the knee at the site of intra-articular probe insertion. A temperature” for “knee joint. A temperature”
One the first day of the study, patients were randomized so that (i) three patients receiving cooling of the knee joint using the Breg Knee WrapOn Polar Pad and (ii) two patients will receive ice-pack cooling over the patella as set forth above. Patients were subjected to the following procedure: • Placement of intraarticular temperature probe and skin temperature probe. […]

Q: How did the “Knee Pain (NPRS)” value (Ice Pack cooling, 20 min, all five patients (Example 7)) turn out when `COc1cc(CNC(=O)CCCCC=CC(C)C)ccc1O` [trans-capsaicin, N-[(4-hydroxy-3-methoxyphenyl)methyl]-8-methylnon-6-enamide] was run?
A: The value was 0.4 (+/−0.5).

Q: What about the “Knee Pain (NPRS)” value (Ice Pack cooling, 20 min, four patients (Example 7)) of the same compound?
A: Its value is 0.5 (+/−0.6).

Q: And the “Knee Pain (NPRS)” value (Ice Pack cooling, 30 min, all five patients (Example 7))?
A: The value was 0.3 (+/−0.5).

Q: And the “Knee Pain (NPRS)” value (Ice Pack cooling, 30 min, four patients (Example 7))?
A: Its value is 0.3 (+/−0.6).

Q: What about the “Knee Pain (NPRS)” value (Ice Pack cooling, 40 min, all five patients (Example 7)) of the same compound?
A: The value was 0.0.

Q: What about the “Knee Pain (NPRS)” value (Ice Pack cooling, 40 min, four patients (Example 7)) of the same compound?
A: Its value is 0.0.

Q: And the “Knee Pain (NPRS)” value (Ice Pack cooling, 50 min, all five patients (Example 7))?
A: The value was 0.3 (+/−0.5).

Q: And the “Knee Pain (NPRS)” value (Ice Pack cooling, 50 min, four patients (Example 7))?
A: The value was 0.3 (+/−0.5).

Q: What about the “Knee Pain (NPRS)” value (Ice Pack cooling, 70 min, all five patients (Example 7)) of the same compound?
A: Its value is 7.3 (+/−1.9).

Q: What about the “Knee Pain (NPRS)” value (Ice Pack cooling, 70 min, four patients (Example 7)) of the same compound?
A: Its value is 7.3 (+/−1.9).

Q: What about the “Knee Pain (NPRS)” value (Ice Pack cooling, 80 min, all five patients (Example 7)) of the same compound?
A: The value was 5.4 (+/−3.7).

Q: And the “Knee Pain (NPRS)” value (Ice Pack cooling, 80 min, four patients (Example 7))?
A: The value was 6.8 (+/−2.5).

Q: What about the “Knee Pain (NPRS)” value (Ice Pack cooling, 90 min, all five patients (Example 7)) of the same compound?
A: The value was 4.0 (+/−1.6).

Q: And the “Knee Pain (NPRS)” value (Ice Pack cooling, 90 min, four patients (Example 7))?
A: Its value is 4.3 (+/−1.7).

Q: What about the “Knee Pain (NPRS)” value (Ice Pack cooling, 100 min, all five patients (Example 7)) of the same compound?
A: Its value is 3.2 (+/−1.6).

Q: What about the “Knee Pain (NPRS)” value (Ice Pack cooling, 100 min, four patients (Example 7)) of the same compound?
A: Its value is 3.5 (+/−1.7).

Q: What about the “Knee Pain (NPRS)” value (Ice Pack cooling, 110 min, all five patients (Example 7)) of the same compound?
A: Its value is 2.4 (+/−2.1).

Q: And the “Knee Pain (NPRS)” value (Ice Pack cooling, 110 min, four patients (Example 7))?
A: The value was 2.8 (+/−2.2).

Q: And the “Knee Pain (NPRS)” value (Ice Pack cooling, 120 min, all five patients (Example 7))?
A: Its value is 1.8 (+/−1.3).

Q: And the “Knee Pain (NPRS)” value (Ice Pack cooling, 120 min, four patients (Example 7))?
A: The value was 2.0 (+/−1.4).

Q: What about the “Knee Pain (NPRS)” value (Ice Pack cooling, 130 min, all five patients (Example 7)) of the same compound?
A: The value was 2.0 (+/−1.0).

Q: And the “Knee Pain (NPRS)” value (Ice Pack cooling, 130 min, four patients (Example 7))?
A: The value was 2.3 (+/−1.0).

Q: What about the “Knee Pain (NPRS)” value (Ice Pack cooling, 140 min, all five patients (Example 7)) of the same compound?
A: The value was 1.8 (+/−1.1).

Q: What about the “Knee Pain (NPRS)” value (Ice Pack cooling, 140 min, four patients (Example 7)) of the same compound?
A: Its value is 1.8 (+/−1.3).

Q: And the “Knee Pain (NPRS)” value (Ice Pack cooling, 150 min, all five patients (Example 7))?
A: Its value is 1.4 (+/−0.9).

Q: And the “Knee Pain (NPRS)” value (Ice Pack cooling, 150 min, four patients (Example 7))?
A: The value was 1.3 (+/−1.0).

Q: What about the “Knee Pain (NPRS)” value (Ice Pack cooling, 160 min, all five patients (Example 7)) of the same compound?
A: The value was 1.0 (+/−1.4).

Q: And the “Knee Pain (NPRS)” value (Ice Pack cooling, 160 min, four patients (Example 7))?
A: Its value is 2.0.

Q: What about the “Knee Pain (NPRS)” value (Ice Pack cooling, 170 min, all five patients (Example 7)) of the same compound?
A: Its value is 0.5 (+/−0.7).

Q: What about the “Knee Pain (NPRS)” value (Ice Pack cooling, 170 min, four patients (Example 7)) of the same compound?
A: Its value is 1.0.

Q: What about the “Knee Pain (NPRS)” value (Ice Pack cooling, 180 min, all five patients (Example 7)) of the same compound?
A: The value was 7.0.

Q: And the “Knee Pain (NPRS)” value (Ice Pack cooling, 180 min, four patients (Example 7))?
A: The value was 7.0.

Q: What about the “Knee Pain (NPRS)” value (Ice Pack cooling, 190 min, all five patients (Example 7)) of the same compound?
A: Its value is 2.0.

Q: And the “Knee Pain (NPRS)” value (Ice Pack cooling, 190 min, four patients (Example 7))?
A: Its value is 2.0.

Q: And the “Knee Pain (NPRS)” value (Ice Pack cooling, Baseline, all five patients (Example 7))?
A: The value was 1.0 (+/−2.2).

Q: What about the “Knee Pain (NPRS)” value (Ice Pack cooling, Baseline, four patients (Example 7)) of the same compound?
A: Its value is 1.3 (+/−2.5).

Q: And the “Knee Pain (NPRS)” value (Standard Cooling Device (Breg pad), 20 min, all five patients (Example 7))?
A: Its value is 1.0 (+/−1.7).

Q: What about the “Knee Pain (NPRS)” value (Standard Cooling Device (Breg pad), 20 min, four patients (Example 7)) of the same compound?
A: The value was 1.3 (+/−1.9).

Q: What about the “Knee Pain (NPRS)” value (Standard Cooling Device (Breg pad), 30 min, all five patients (Example 7)) of the same compound?
A: Its value is 1.2 (+/−1.1).

Q: And the “Knee Pain (NPRS)” value (Standard Cooling Device (Breg pad), 30 min, four patients (Example 7))?
A: Its value is 1.3 (+/−1.3).

Q: What about the “Knee Pain (NPRS)” value (Standard Cooling Device (Breg pad), 50 min, all five patients (Example 7)) of the same compound?
A: The value was 0.8 (+/−0.8).

Q: What about the “Knee Pain (NPRS)” value (Standard Cooling Device (Breg pad), 50 min, four patients (Example 7)) of the same compound?
A: The value was 1.0 (+/−0.8).

Q: What about the “Knee Pain (NPRS)” value (Standard Cooling Device (Breg pad), 70 min, all five patients (Example 7)) of the same compound?
A: The value was 5.0 (+/−2.9).

Q: And the “Knee Pain (NPRS)” value (Standard Cooling Device (Breg pad), 70 min, four patients (Example 7))?
A: Its value is 4.0 (+/−2.2).

Q: And the “Knee Pain (NPRS)” value (Standard Cooling Device (Breg pad), 80 min, all five patients (Example 7))?
A: Its value is 4.0 (+/−1.4).

Q: What about the “Knee Pain (NPRS)” value (Standard Cooling Device (Breg pad), 80 min, four patients (Example 7)) of the same compound?
A: Its value is 3.8 (+/−1.5).

Q: And the “Knee Pain (NPRS)” value (Standard Cooling Device (Breg pad), 90 min, all five patients (Example 7))?
A: Its value is 2.8 (+/−1.6).

Q: And the “Knee Pain (NPRS)” value (Standard Cooling Device (Breg pad), 90 min, four patients (Example 7))?
A: Its value is 2.5 (+/−1.7).

Q: And the “Knee Pain (NPRS)” value (Standard Cooling Device (Breg pad), 100 min, all five patients (Example 7))?
A: The value was 2.0 (+/−1.4).

Q: And the “Knee Pain (NPRS)” value (Standard Cooling Device (Breg pad), 100 min, four patients (Example 7))?
A: The value was 1.8 (+/−1.5).

Q: What about the “Knee Pain (NPRS)” value (Standard Cooling Device (Breg pad), 110 min, all five patients (Example 7)) of the same compound?
A: The value was 1.2 (+/−0.8).

Q: And the “Knee Pain (NPRS)” value (Standard Cooling Device (Breg pad), 110 min, four patients (Example 7))?
A: Its value is 1.3 (+/−1.0).

Q: What about the “Knee Pain (NPRS)” value (Standard Cooling Device (Breg pad), 120 min, all five patients (Example 7)) of the same compound?
A: The value was 1.0 (+/−0.7).

Q: And the “Knee Pain (NPRS)” value (Standard Cooling Device (Breg pad), 120 min, four patients (Example 7))?
A: Its value is 1.0 (+/−0.8).

Q: What about the “Knee Pain (NPRS)” value (Standard Cooling Device (Breg pad), 130 min, all five patients (Example 7)) of the same compound?
A: The value was 0.6 (+/−0.5).

Q: What about the “Knee Pain (NPRS)” value (Standard Cooling Device (Breg pad), 130 min, four patients (Example 7)) of the same compound?
A: The value was 0.8 (+/−0.5).

Q: What about the “Knee Pain (NPRS)” value (Standard Cooling Device (Breg pad), 140 min, all five patients (Example 7)) of the same compound?
A: The value was 1.2 (+/−0.8).

Q: What about the “Knee Pain (NPRS)” value (Standard Cooling Device (Breg pad), 140 min, four patients (Example 7)) of the same compound?
A: Its value is 1.0 (+/−0.8).

Q: And the “Knee Pain (NPRS)” value (Standard Cooling Device (Breg pad), 150 min, all five patients (Example 7))?
A: The value was 1.2 (+/−1.1).

Q: What about the “Knee Pain (NPRS)” value (Standard Cooling Device (Breg pad), 150 min, four patients (Example 7)) of the same compound?
A: The value was 1.3 (+/−1.3).

Q: And the “Knee Pain (NPRS)” value (Standard Cooling Device (Breg pad), Baseline, all five patients (Example 7))?
A: Its value is 1.8 (+/−2.4).

Q: What about the “Knee Pain (NPRS)” value (Standard Cooling Device (Breg pad), Baseline, four patients (Example 7)) of the same compound?
A: The value was 2.0 (+/−2.7).
